In brackets after ≈: the same amount, converted by molar mass. Several values for one entry are separate records, joined by “and”; a condition that tells them apart may be missing. Identical values can stand only once. Like-named read-outs stand apart in the source and are kept apart here. *1 amine or outer side, *2 acyl side, *3 side chain or, on linkers, in order; H or OH if unused. Where a SMILES comes first, the peptide text is derived from it. [ ]: non-standard residue; d: D form. X3 = C#CCOc1ccc([C@@H](OC)[C@H](N[*:1])C(=O)[*:2])cc1; NMeLeu(5-OH,4R) = CN[C@@H](C[C@@H](C)CO)C(=O)O; Phe(βR-OMe) = CO[C@H](c1ccccc1)[C@H](N)C(=O)O; Trp(1-Me) = Cn1cc(C[C@H](N)C(=O)O)c2ccccc21; NMeL = CN[C@@H](CC(C)C)C(=O)O
How the values were obtained:
[1] = target: ClpC1 NTD protein (M. tuberculosis) (Mycobacterium tuberculosis, UniProt P9WPC9); assay: biochemical; assay type: binding
in vitro = conditions: human
In short: (§1)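 Values are bidirectional Caco-2 apparent permeabilities, P(A−B) and P(B−A), given in 10^-6 cm s-1. The efflux ratio divides P(B−A) by P(A−B), and intrinsic permeability averages the two directions.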

Caco-2 monolayers = assay: in vitro; conditions: human, Caco-2
In short: as §1

[2] = assay type: in vitro ADME, Mice; conditions: for Microsomal Stability Mice: clearance in microsomes
Procedure: (§2) The kinetics of compound degradation in liver microsomes is assessed in an assay with 1 µmol/l of compound and 0.5 mg/ml liver microsomes in a medium of 100 mM Tris-HCl pH 7.5, 6.5 mM MgCl2 and 1 mM NADPH at 37 °C. The reaction is stopped at multiple time points by adding acetonitrile. After centrifugation, the compound concentration is measured in the supernatants by high-performance liquid chromatography (HPLC) tandem mass spectrometry (MS/MS). The results are fitted to a first-order decay and the half-lives are converted to clearance (stated as % of the liver blood flow (%Qh)) using the well-stirred liver model.

[3] = assay type: in vitro ADME, Rat; conditions: for Microsomal Stability Rat: clearance in microsomes
Procedure: as §2

[4] = Microsomal stability, human; assay type: in vitro ADME; conditions: for Microsomal Stability Human: clearance in microsomes
In short: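 Metabolic depletion in liver microsomes (0.5 mg/ml, 1 mM NADPH, 37 °C) starting from 1 µmol/l test compound, sampled at multiple times with acetonitrile quench. LC-MS/MS quantitation; half-life converted to %Qh.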

[5] = Hepatocyte stability, mice; assay type: in vitro ADME; conditions: mouse, pH 7.4
In short: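 Clearance expressed as % of liver blood flow (% Qh), derived from half-life via the well-stirred liver model. Compound at 1 µM final was incubated up to 6 h with ~1 million cells/mL hepatocytes in 50% serum buffer, 37 °C, pH 7.4.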

[6] = assay type: in vitro ADME, Rat; conditions: rat, pH 7.4
[7] = assay type: in vitro ADME, Human; conditions: human, pH 7.4
[8] = system: M. tuberculosis H37Rv (ATCC 27294); assay: microbe, parasite or virus in culture; assay type: cell-based; conditions: Mycobacterium tuberculosis
Msm 607 = assay: microbe, parasite or virus in culture; assay type: cell-based
Msm 700084 = assay: microbe, parasite or virus in culture; assay type: cell-based
[9] = target: His6-tagged ClpC1-NTD substrate, M. smegmatis ClpC1P1P2 (UniProt A0R574+P9WPC9); assay: biochemical; assay type: biochemical; conditions: Msm
[10] = target: ClpC1-NTD substrate, M. tuberculosis ClpC1P1P2 (Mycobacterium tuberculosis, UniProt P9WPC9); assay: biochemical; assay type: biochemical; conditions: Mtb
[11] = SPR (Supplementary Table 1), read-out: KD ClpC1-NTD Mean ± SD
[12] = SPR, single independent measurements
[13] = SPR, single independent measurements, read-out: KD ClpC1-NTD
[14] = SPR, single independent measurements, read-out: koff ClpC1-NTD
[15] = Caco-2, Caco-2 permeability P (A-B)
[16] = Caco-2, Caco-2 permeability P (B-A)
[17] = Mtb H37Rv (Supplementary Table 2), read-out: MIC Mtb
[18] = single determinations, read-out: Mtb MIC
[19] = Mycolicibacterium smegmatis, 607, read-out: MIC Msm 607
[20] = Mycolicibacterium smegmatis, 607, read-out: Msm 607 MIC, single determinations
[21] = Mycolicibacterium smegmatis, 700084, single determinations, read-out: Msm 700084 MIC
[22] = Mycolicibacterium smegmatis, 700084, read-out: MIC Msm 700084
[23] = mean of the measurements, read-out: 1-Dmax, Mean
[24] = mean of the measurements, read-out: DC50, Mean

Chain of ClpC1-NTD substrate, M. tuberculosis ClpC1P1P2 (P9WPC5 whole entry): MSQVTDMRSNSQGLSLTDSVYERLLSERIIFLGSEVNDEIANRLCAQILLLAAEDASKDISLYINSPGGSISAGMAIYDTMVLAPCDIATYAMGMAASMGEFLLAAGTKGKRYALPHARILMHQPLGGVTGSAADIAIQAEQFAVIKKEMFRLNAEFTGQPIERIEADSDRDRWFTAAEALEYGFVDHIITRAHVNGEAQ
Chain of ClpC1-NTD substrate, M. tuberculosis ClpC1P1P2 (P9WPC9 whole entry): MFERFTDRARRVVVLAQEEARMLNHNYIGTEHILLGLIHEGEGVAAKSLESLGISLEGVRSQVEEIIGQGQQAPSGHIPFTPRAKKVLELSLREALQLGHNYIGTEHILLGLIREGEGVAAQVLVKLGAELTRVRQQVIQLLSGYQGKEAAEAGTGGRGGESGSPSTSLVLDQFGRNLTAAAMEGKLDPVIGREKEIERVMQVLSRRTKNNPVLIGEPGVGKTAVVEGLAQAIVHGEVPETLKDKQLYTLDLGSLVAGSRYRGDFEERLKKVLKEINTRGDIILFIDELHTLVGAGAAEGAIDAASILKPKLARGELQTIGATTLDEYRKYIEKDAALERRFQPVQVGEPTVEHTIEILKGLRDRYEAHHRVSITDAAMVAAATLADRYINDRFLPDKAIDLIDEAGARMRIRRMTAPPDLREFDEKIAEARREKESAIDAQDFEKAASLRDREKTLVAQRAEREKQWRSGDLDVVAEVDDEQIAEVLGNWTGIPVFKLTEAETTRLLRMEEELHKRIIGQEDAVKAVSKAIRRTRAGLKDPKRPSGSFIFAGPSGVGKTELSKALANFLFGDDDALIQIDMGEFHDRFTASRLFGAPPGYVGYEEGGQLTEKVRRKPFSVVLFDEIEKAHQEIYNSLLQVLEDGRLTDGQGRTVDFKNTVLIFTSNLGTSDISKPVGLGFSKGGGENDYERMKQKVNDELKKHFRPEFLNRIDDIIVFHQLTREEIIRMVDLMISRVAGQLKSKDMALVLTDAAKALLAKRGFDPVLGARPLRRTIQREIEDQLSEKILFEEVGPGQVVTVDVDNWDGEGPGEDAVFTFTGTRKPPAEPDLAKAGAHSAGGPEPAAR
Chain of ClpC1-NTD substrate, M. tuberculosis ClpC1P1P2 (P9WPC3 whole entry, further chain): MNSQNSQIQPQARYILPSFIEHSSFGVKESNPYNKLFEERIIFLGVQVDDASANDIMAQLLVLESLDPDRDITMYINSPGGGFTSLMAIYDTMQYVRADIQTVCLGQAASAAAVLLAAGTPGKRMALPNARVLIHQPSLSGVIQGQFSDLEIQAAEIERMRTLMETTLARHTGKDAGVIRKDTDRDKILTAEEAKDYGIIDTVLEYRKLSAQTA
Chain of His6-tagged ClpC1-NTD substrate, M. smegmatis ClpC1P1P2 (P9WPC9 1-156, looked up, natural form): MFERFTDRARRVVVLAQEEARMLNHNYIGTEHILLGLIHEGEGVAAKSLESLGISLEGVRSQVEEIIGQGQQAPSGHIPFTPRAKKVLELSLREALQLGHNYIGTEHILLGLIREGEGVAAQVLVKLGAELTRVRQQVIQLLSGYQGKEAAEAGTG
Chain of His6-tagged ClpC1-NTD substrate, M. smegmatis ClpC1P1P2 (A0R574 whole entry): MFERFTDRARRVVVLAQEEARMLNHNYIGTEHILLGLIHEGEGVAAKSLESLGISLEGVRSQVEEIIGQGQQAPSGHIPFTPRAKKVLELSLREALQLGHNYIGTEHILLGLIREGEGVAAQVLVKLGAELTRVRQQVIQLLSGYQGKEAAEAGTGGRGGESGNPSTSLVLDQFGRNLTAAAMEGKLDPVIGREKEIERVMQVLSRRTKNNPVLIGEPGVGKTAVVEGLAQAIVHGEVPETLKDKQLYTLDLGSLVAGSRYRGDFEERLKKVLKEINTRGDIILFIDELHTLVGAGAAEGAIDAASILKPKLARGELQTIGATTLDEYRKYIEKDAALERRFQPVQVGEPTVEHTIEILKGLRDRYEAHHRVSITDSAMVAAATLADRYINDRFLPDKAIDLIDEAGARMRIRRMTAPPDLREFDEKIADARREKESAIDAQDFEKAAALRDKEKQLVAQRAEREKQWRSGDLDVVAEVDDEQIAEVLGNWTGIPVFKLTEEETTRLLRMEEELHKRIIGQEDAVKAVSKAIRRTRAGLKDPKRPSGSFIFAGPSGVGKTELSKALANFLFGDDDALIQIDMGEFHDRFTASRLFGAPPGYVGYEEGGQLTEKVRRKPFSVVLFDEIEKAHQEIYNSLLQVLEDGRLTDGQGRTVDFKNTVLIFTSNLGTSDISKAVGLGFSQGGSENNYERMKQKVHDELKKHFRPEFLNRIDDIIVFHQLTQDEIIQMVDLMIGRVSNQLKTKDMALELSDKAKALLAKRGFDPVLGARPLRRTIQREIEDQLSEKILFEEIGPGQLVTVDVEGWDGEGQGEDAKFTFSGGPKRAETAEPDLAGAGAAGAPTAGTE
Chain of ClpC1 NTD protein (M. tuberculosis) (P9WPC9 1-156, looked up, natural form): as the sequence (P9WPC9 1-156, looked up, natural form) above

| Compound | Kd [1, 11] [nM] | Papp A→B (in vitro; [15]) [×10⁻⁶ cm/s] | Caco-2 Int. Perm (Caco-2 monolayers) | Microsomal Stability Mouse QH [2] [%] | Microsomal Stability Mice [2] [%Qh] | Microsomal Stability Rat QH [3] [%] | Microsomal Stability Rat [3] [%Qh] | Microsomal Stability Human QH [4] [%] | Microsomal Stability Human [4] [%Qh] | Hepatocyte Mice [5] [%Qh] | Hepatocyte Rat [6] [%Qh] | Hepatocyte Stability Rat QH [6] [%] | Hepatocyte Human [7] [%Qh] | Hepatocyte Stability Human QH [7] [%] | MIC [8, 17] [µM] | MIC [8, 18] [µM] | MIC (Msm 607; [19]) [µM] | MIC (Msm 607; [20]) [µM] | MIC (Msm 700084; [21]) [µM] | MIC (Msm 700084; [22]) [µM] | further results |
| --- | --- | --- | --- | --- | --- | --- | --- | --- | --- | --- | --- | --- | --- | --- | --- | --- | --- | --- | --- | --- | --- |
| C#CCOc1ccc([C@@H](OC)[C@@H]2NC(=O)[C@H](C)NC(=O)[C@H](C[C@@H](C)CO)N(C)C(=O)[C@H](Cc3cn(C)c4ccccc34)NC(=O)[C@H](C(C)C)NC(=O)[C@H](CC(C)C)N(C)C(=O)[C@H](C(C)C)NC2=O)cc1 [SI-38] (cyclo(A[X3]V[NMeL]V[Trp(1-Me)][NMeLeu(5-OH,4R)])) | 5.6 ± 0.6 | < 0.2 | 9.1 | 72.800 | 73 | 58.700 | 59 | 83.600 | 84 | 15 | 37 | 37.130 | 19 | 19.299 | 1.6 (≈ 1.55 µg/mL) | 1.56 (≈ 1.52 µg/mL) | 25 (≈ 24.3 µg/mL) | 25 (≈ 24.3 µg/mL) | 12.5 (≈ 12.1 µg/mL) | 12.5 (≈ 12.1 µg/mL) | koff ClpC1-NTD [1, 12]: 0.04 s⁻¹; Kd [1, 13]: 6 nM and 5.19 nM; koff [1, 14]: 0.06 s⁻¹; Papp B→A (in vitro; Caco-2, CACO permeability PEBA): 18 ×10⁻⁶ cm/s; Papp B→A (in vitro; [16]): 18 ×10⁻⁶ cm/s; Hepatocyte Stability Mouse QH [5]: 15.001% |
| CO[C@H](c1ccccc1)[C@@H]1NC(=O)[C@H](C)NC(=O)[C@H](C[C@@H](C)CO)N(C)C(=O)[C@H](Cc2cn(Cc3cn(CCOCCOCCOCCOCCn4cc(Cn5cc(C[C@H]6C(=O)N(C)[C@@H](C[C@@H](C)CO)C(=O)N[C@@H](C)C(=O)N[C@@H]([C@H](OC)c7ccccc7)C(=O)N[C@@H](C(C)C)C(=O)N(C)[C@@H](CC(C)C)C(=O)N[C@@H](C(C)C)C(=O)N6C)c6ccccc65)nn4)nn3)c3ccccc23)N(C)C(=O)[C@H](C(C)C)NC(=O)[C@H](CC(C)C)N(C)C(=O)[C@H](C(C)C)NC1=O [Compound 27] | – | < 6.4 | 4.1 | 77.100 | 77 | 41.300 | 41 | >88.400 | > 88 | 15 | 6 | 6.192 | 12 | 12.386 | < 0.1 | < 0.1 | 1.6 (≈ 3.52 µg/mL) | 1.56 (≈ 3.43 µg/mL) | 0.78 (≈ 1.72 µg/mL) | 0.8 (≈ 1.76 µg/mL) | koff ([1]; SPR dissociation rate constant, read-out: koff ClpC1-NTD Mean ± SD): 0.002 s⁻¹; Kd ([1]; SPR, individual measurements (source data), read-out: KD ClpC1-NTD): 0.3 nM and 0.576 nM; koff ClpC1-NTD [1, 12]: 2E-3 2E-3 1/s; koff [1, 14]: 0.002 s⁻¹; Kd ([1]; SPR, read-out: ClpC1-NTD KD Mean ± SD): 0.4 ± 0.2 nM; Papp B→A (in vitro; [16]): < 1.7 ×10⁻⁶ cm/s; MIC ([8]; M. tuberculosis H37Rv strain, read-out: MIC Mtb H37Rv Mean ± SD): < 0.1 µM; MIC ([8]; individual measurements (source data), read-out: Mtb MIC): < 0.1 µM; 1-Dmax, single measurements ([9]; Measurement 1-6): 93.8% and 90.4%; 1-Dmax (percent substrate remaining at maximal degradation) ([9]; Measurement 1-6, read-out: 1-Dmax, single measurements): 89.3%; 1-Dmax (percent substrate remaining at maximal degradation) [9, 23]: 91%; DC50 [9, 24]: 12.5 µM; 1-Dmax, single measurements ([10]; Measurement 1-4): 70.9% and 71.4% and 79.4%; 1-Dmax (percent substrate remaining at maximal degradation) ([10]; Measurement 1-4, read-out: 1-Dmax, single measurements): 75.3%; 1-Dmax (percent substrate remaining at maximal degradation) [10, 23]: 74%; DC50 [10, 24]: 24.7 µM |
| CO[C@H](c1ccccc1)[C@@H]1NC(=O)[C@H](C)NC(=O)[C@H](C[C@@H](C)CO)N(C)C(=O)[C@H](Cc2cn(C)c3ccccc23)NC(=O)[C@H](CCC(=O)N(C)C)NC(=O)[C@H](CC(C)C)N(C)C(=O)[C@H](C(C)C)NC1=O [SI-74] (cyclo(A[Phe(βR-OMe)]V[NMeL]E(NMe2)[Trp(1-Me)][NMeLeu(5-OH,4R)])) | 4 ± 2 | < 0.5 | 1.7 | 83.700 | 84 | 60.700 | 85 | 85.000 | 61 | 38 | 49 | 48.537 | 12 | 12.386 | 3.1 (≈ 3.02 µg/mL) | 3.12 (≈ 3.04 µg/mL) | 0.8 (≈ 0.779 µg/mL) | 0.78 (≈ 0.76 µg/mL) | 6.25 (≈ 6.09 µg/mL) | 9.4 ± 4.4 (≈ 9.16 µg/mL) | Kd [1, 13]: 3.28 nM and 5.58 nM; efflux ratio (in vitro; Caco-2): > 6; Papp A→B (in vitro; Caco-2, CACO permeability PEAB): < 0.46 ×10⁻⁶ cm/s; Papp B→A (in vitro; Caco-2, CACO permeability PEBA): 3.4 ×10⁻⁶ cm/s; Hepatocyte Stability Mouse QH [5]: 37.632%; MIC (Msm 700084; single determinations, read-out: Msm 700084 MIC): 12.500 µM (≈ 12.2 µg/mL) |
